{"source": "paper PMC11474028", "about": "“Lipopeptide antibiotics disrupt interactions of undecaprenyl phosphate with UptA” (Proceedings of the National Academy of Sciences of the …, 2024)", "molecules": {"B1": {"name": "UptA (undecaprenyl phosphate transporter A), Bacillus subtilis, wild type (natural protein, UniProt O31823 1-198, looked up)", "chain": "MGSLISEILTWLTNMGYAGIAIGLMIEIIPSEIVLAYGGYMVSEGTIGFIGAIIAGVIGGTIAQIFIYWIGRYGGRPFLDKYGKYLLIKKHHIDMSENWFQKYGAGVVFSARFIPVVRHAISIPAGIARMPFLKFVVLTVLAIIPWSILFVYLGIQLGSQWDDVENIAGTYTTPIMILAVVVIALYFVIKKRTAIFKR", "modifications": "formylation of the N-terminal methionine", "notes": "UptA, DedA family membrane protein of Bacillus subtilis; detailed procedures are in SI Appendix; In equilibrium of monomers and dimers; also called WT; not shown: GFP, C-terminal, cleaved"}}, "key": {"UptA [1]": {"target": "T1, UptA (Bacillus subtilis, UniProt O31823)", "assay": "Native MS of antibiotic binding to UptA", "conditions": "2.5 µM UptA, 10 µM C55-P, antibiotic up to 100 µM (polymyxins 100 µM), 0.05% LDAO, 200 mM ammonium acetate, 75 V", "description": "We next investigate how UptA and its complex with C55-P interact with a range of cell-wall targeting antibiotics including the lipopeptides daptomycin and amphomycin. […] We investigated whether daptomycin affects C55-P binding to UptA by recording spectra for solutions containing 2.5 µM UptA, 10 µM C55-P, and different concentrations of daptomycin.\n(§1) Amphomycin and derivatives are known to kill bacteria by forming complexes with free C55-P ([46]), however, whether or not this involves a direct interaction with a protein cellular target is not known. We therefore investigated how amphomycin affects the UptA:C55-P complex. We recorded spectra for solutions containing 2.5 µM UptA, 10 µM C55-P and then equilibrated aliquots with increasing concentrations of amphomycin.\nThe amphiphilic nature of daptomycin and amphomycin raises the possibility that these lipopeptide antibiotics may promiscuously bind to UptA in a nonspecific manner. We probe this possibility by recording spectra for UptA:C55-P solutions in the presence of 100 µM polymyxin B and 100 µM polymyxin E. These polymyxins are membrane-disrupting lipopeptides that target the outer membrane lipopolysaccharides in Gram-negative bacteria ([47]) but without a known affinity for C55-P or UptA.\nTo this end, we prepared UptA:C55-P mixtures and then equilibrated aliquots with bacitracin and vancomycin.\n(§2) Detailed experimental procedures are provided in SI Appendix. Briefly, UptA (wild type and mutants) was expressed in E. coli C43(DE3) cells (Lucigen) with GFP fusion on the C-terminus and solubilized from the membrane fraction by n-dodecyl-β-D-maltopyranoside (DDM). After purification by affinity chromatography, the GFP was cleaved by TEV protease and removed, and UptA was further purified by size-exclusion chromatography in a buffer containing 20 mM Tris-HCl (pH 8.0), 200 mM NaCl, 0.02% DDM. Before measurements, proteins were buffer-exchanged into 0.05% LDAO, 200 mM ammonium acetate at the desired pH using a centrifugal buffer exchange device (Micro Bio-Spin 6, Bio-Rad). Stock solutions of lipids were prepared from chloroform/methanol solution by evaporating aliquots of known volume in a SpeedVac. After drying, the lipid films were weighed and resuspended to a final concentration of 0.5 mM in 200 mM ammonium acetate and 0.05% LDAO by vertexing. Stock solutions of 0.5 mM amphomycin, aspartocin D, daptomycin, polymyxin B, polymyxin E, and bacitracin were made in the same buffer. All experiments were repeated three times from newly prepared stock solutions. Native mass spectrometry was performed on a Q-Exactive hybrid quadrupole-Orbitrap mass spectrometer (Thermo Fisher Scientific, Bremen, Germany), and lipid identification was performed on an Orbitrap Eclipse Tribrid mass spectrometer (Thermo). […]"}, "UptA:C55-P complex": {"system": "UptA:C55-P complex", "assay": "Native MS of UptA:C55-P complex in the presence of antibiotics", "assay_type": "binding, Bacillus subtilis", "conditions": "2.5 µM UptA, 10 µM C55-P, 0 to 100 µM antibiotic, 75 V; mean of three independent replicates", "description": "as §1\n(A) Mass spectra (6+ charge state) for solutions containing 2.5 µM UptA and 10 µM C55-P incubated with 0 to 100 µM amphomycin. (B) Relative intensity of C55-P bound to UptA in the presence of amphomycin and daptomycin. The bar represents the mean of three independent replicates shown as data points and error bars are SD. […] (C) Fraction of C55-P bound to UptA in the presence of cell wall targeting antibiotics. Each sample contains 2.5 µM UptA, 10 µM C55-P and 100 µM of indicated antibiotic, and spectra were acquired using the same instrument settings and collisional activation of 75 V. The bar represents the mean of three independent replicates shown as data points, and the error bar represents SD. […]\nas §2"}, "[2]": {"conditions": "daptomycin ref 45; vancomycin ref 49, 50; cited from earlier work"}, "MurJ": {"target": "MurJ", "conditions": "read-out: Kd, MurJ/lipid II; cited from earlier work", "description": "(§3) We explored the binding affinity of UptA toward C55-P by recording mass spectra for solutions containing 2.5 µM UptA and 0 to 40 µM C55-P in 200 mM ammonium acetate, 0.05% LDAO at pH 8.0. […] Further increase in the concentration of C55-P enhanced the intensity of the UptA:C55-P complex, together with the emergence of additional binding events (Fig. 2A). We deconvoluted the spectra ([34]) to extra ..."}, "UptA [3]": {"target": "T1, UptA", "assay": "Native MS competition of C55-P and phospholipids for UptA binding", "conditions": "4 µM UptA and 10 µM C55-P, increasing DOPG (up to 20 µM) or DOPE", "description": "To investigate whether or not C55-P can outcompete phospholipids in binding to UptA, we incubated solutions containing UptA-DOPG with increasing concentrations of C55-P. Spectra were recorded after aliquots of the solution were equilibrated on ice for 15 min. […] We therefore hypothesised that phospholipids should be unable to outcompete C55-P bound to UptA. To test this hypothesis, we incubated UptA with C55-P and then equilibrated aliquots with an increasing concentration of DOPG. […]\nThe chloroform layer containing the total lipids was recovered into a clean glass vial, and the organic solvent was evaporated in a SpeedVac for 16 h. Lipid film was resuspended 200 mM ammonium acetate, 0.05% LDAO (pH 8.0) to ~0.5 mg/mL for the binding experiments.\nSample preparation for native MS\nBefore measurements, the protein was buffer-exchanged into 0.05% LDAO, 200 mM ammonium acetate (“MS buffer”) at the desired pH using a centrifugal buffer exchange device (Micro Bio -Spin 6, Bio-Rad). Stock solutions of lipids were prepared from chloroform/methanol solution by evaporating aliquots of known volume in a SpeedVac. After drying, the lipid films were weighed and resuspended to a final concentration of 0.5 mM in 200 mM ammonium acetate (pH8) and 0.05% LDAO by vertexing. Stock solutions of 0.5 mM amphomycin, aspartocin D, daptomycin and bacitracin, were made in the same buffer. All experiments were repeated three times from newly prepared stock solutions.\nAbout 3 μL protein aliquot was transferred into a gold-coated borosilicate capillary (Harvard Apparatus) and was mounted on the nano ESI source of a Q-Exactive hybrid quadrupole-Orbitrap mass spectrometer (Thermo Fisher Scientific, Bremen, Germany). The instrument settings were 1.2 kV capillary voltage, S-lens RF 200%, argon UHV pressure 3.3 × 10−10 mbar, the capillary temperature was set to 200 °C, and resolution of the instrument was set to 17,500 at a transie nt time of 64 ms. […] The resulting fragments were detected in the Orbitrap (R = 280,000 @ m/z 200), averaging ~500 transients to maximise the signal-to-noise ratio. […]"}, "UptA [4]": {"target": "T1, UptA", "assay": "Native MS of phospholipid binding to UptA", "excerpt": "Proteins belonging to the DedA family are a widespread family of transporters and are proposed to flip diverse lipids, including carrier lipids and membrane phospholipids. We therefore probed the interaction of UptA with membrane phospholipids to understand whether the latter could modulate its function. For this purpose, we selected anionic phosphatidylglycerols (PG) and zwitterionic phosphatidylethanolamines (PE), representing the major classes of phospholipid headgroups found in B. subtilis ([41], [42]). We recorded mass spectra of solutions containing 4 µM UptA incubated with 10 µM a15:0-i15:0 PE and 10 µM a15:0-i15:0 PG (a15:0, anteiso-pentadecanoic acid; i15:0, iso-pentadecanoic acid). The fatty acid composition of these lipids closely mimics those of native B. subtilis lipids (see below). The resulting spectra display peaks corresponding to UptA in apo and lipid-bound forms in both cases (Fig. 4 A and B). […] We therefore hypothesize that UptA interacts more favorably with PG than with PE.\nTo verify the lipid binding preference of UptA with more native-like lipids, we prepared lipid extracts from B. subtilis membranes (Materials and Methods). We then incubate an aliquot of the resulting crude lipids (SI Appendix, Fig. S8) with UptA. The spectra yielded peaks assigned to UptA in complex with cardiolipins (~1,326 Da) and a range of phospholipids, predominantly 694 Da, 721 Da, 748 Da, and 776 Da species (Fig. 4 D and E). To identify these lipids, we performed tandem MS/MS, isolating the lipid species and subjecting it to collisional activation. […] The fatty acid fragments are mixed populations, predominantly 15:0-15:0, 15:0-17:0, 16:0-16:0, and 16:0-18:1 (SI Appendix, Fig. S9) which are the typical fatty acids from B. subtilis membrane phospholipids ([42]). We therefore conclude that UptA interacts more favorably with the anionic cardiolipins and phosphatidylglycerols than with the zwitterionic phosphatidylethanolamines in the membrane lipid extracts.\nas §2\nLipid extracts from B. Subtilis\nB. subtilis strain 168 (ATCC 23857) was cultivated in […] LB media at 37 °C until OD600 nm 1.2 under aurobic conditions. Cells were harvested by centrifugation at 4,000 g for 20 minutes and resuspended in 20 mM Tris-HCl (pH 8.0), 150 mM NaCl. Cells were lysed by 5-6 passes through a microfluidizer at 20,000 psi. The lysates were clarified by centrifugation at 4,000 g for 10 minutes, and the totoal membrane was pelleted at 120,000 g for 1 h. The membrane pellet was ressupended […]"}, "[5]": {"conditions": "cited from earlier work", "excerpt": "To this end, we prepared UptA:C55-P mixtures and then equilibrated aliquots with bacitracin and vancomycin. […] Despite the combined cellular pool of C55-PP and C55-P being limited to ~1.5 × 10^5 molecules per cell ([56]), they mediate the transport of glycan-bearing components of the cell wall peptidoglycan, teichoic acid, and capsular polysaccharid ..."}, "MurG": {"target": "MurG", "conditions": "read-out: Kd, MurG/lipid I; cited from earlier work", "description": "as §3"}, "[6]": {"target": "the molecule itself", "assay": "native MS; UptA 2.2 µM (E32A 2.5 µM, with 10 µM C55-P) in 200 mM ammonium acetate pH 8.0, 0.05% LDAO; dimer 9+ charge state isolated and dissociated into protomers by HCD (190 V); more dimer at pH 8.0 than at pH 5.0"}}, "note": "“Also recorded” adds a separate entry of the source. Where two headings read alike, the source gives them in different places.", "data": [{"molecule": "daptomycin", "values": [{"measurement": "binding of antibiotic to UptA (in words)", "setting": "UptA [1]", "result": "daptomycin interacts with UptA"}, {"measurement": "effect of antibiotic on UptA:C55-P complex (in words)", "setting": "UptA:C55-P complex", "result": "does not directly compete against C55-P binding to the protein; also recorded: modest impact"}, {"measurement": "complex formation with or sequestration of lipid II (in words)", "setting": "[2]", "result": "complexing with lipid II"}]}, {"molecule": "lipid II", "values": [{"measurement": "Kd", "setting": "MurJ", "result": "2900 ± 600", "unit": "nM"}]}, {"molecule": "CCCCCCCC/C=C\\CCCCCCCC(=O)OC[C@H](COP(=O)(O)OCCN)OC(=O)CCCCCCC/C=C\\CCCCCCCC", "note": "[18:1-18:1 PE]", "values": [{"measurement": "displacement of C55-P from UptA by phospholipid (in words)", "setting": "UptA [3]", "result": "could not efficiently displace C55-P from UptA"}]}, {"molecule": "CCCCCCCC/C=C\\CCCCCCCC(=O)OC[C@H](COP(=O)(O)OCC(O)CO)OC(=O)CCCCCCC/C=C\\CCCCCCCC", "note": "(stereo partly drawn) [18:1-18:1 PG]", "values": [{"measurement": "mean relative intensity of UptA in complex with phospholipid, comparison (in words)", "setting": "UptA [4]; 4 µM UptA with 10 µM lipid (stated for a15:0-i15:0 lipids), mean of three independent replicates", "result": "bind to UptA more intensely than 16:0-18:1 PE and 18:1-18:1 PE, respectively"}, {"measurement": "UptA-lipid complexes formed (stoichiometry, in words)", "setting": "UptA [4]; 4 µM UptA with 10 µM lipid, native MS", "result": "binding of 1 to 2 molecules of DOPG per UptA"}, {"measurement": "displacement of C55-P from UptA by phospholipid (in words)", "setting": "UptA [3]", "result": "C55-P remains bound to UptA even in the presence of excess DOPG (20 µM)"}]}, {"molecule": "bacitracin", "values": [{"measurement": "binding of antibiotic to UptA (in words)", "setting": "UptA [1]", "result": "bind to UptA but with very low intensities"}, {"measurement": "effect of antibiotic on UptA:C55-P complex (in words)", "setting": "UptA:C55-P complex", "result": "modestly competes against C55-P binding to UptA"}, {"measurement": "complex formation with or sequestration of C55-PP (in words)", "setting": "[5]", "result": "form complex with C55-PP"}, {"measurement": "complex formation with or sequestration of C55-PP (in words)", "setting": "[5]; listed as Bacitracin", "result": "sequestration of C55-PP"}]}, {"molecule": "CC(=O)N[C@H]1[C@@H](OP(=O)(O)OP(=O)(O)OC/C=C(/C)CC/C=C(/C)CC/C=C(/C)CC/C=C(/C)CC/C=C(/C)CC/C=C(/C)CC/C=C(/C)CC/C=C(\\C)CC/C=C(\\C)CC/C=C(\\C)CCC=C(C)C)O[C@H](CO)[C@@H](O)[C@@H]1O[C@H](C)C(=O)N[C@@H](C)C(=O)N[C@H](CCC(=O)N[C@@H](CCCCN)C(=O)N[C@H](C)C(=O)N[C@H](C)C(=O)O)C(=O)O", "note": "[lipid I]", "values": [{"measurement": "Kd", "setting": "MurG", "result": "1890 ± 600", "unit": "nM"}]}, {"molecule": "teixobactin", "values": [{"measurement": "complex formation with or sequestration of C55-PP (in words)", "setting": "[5]", "result": "form complex with C55-PP"}]}, {"molecule": "B1", "values": [{"measurement": "stoichiometry N", "setting": "[6]", "result": 2}]}]}
